From US20040253192A1, “Breath Freshening and Oral Cleansing Product Using Cardamom Oil” (priority 2002, published 2004)

Columns and labels:
Type in all cases: cell-based
Fusobacterium nucleatum [1] = assay: MIC (minimum inhibitory concentration) study, 96 well microtiter plates; conditions: F. nucleatum, 48 hours at 37° C., turbidity at 660 nm
Procedure: (§1) In vitro tests were conducted with a gram positive supragingival plaque bacterium, Streptococcus mutans. In addition, two subgingival plaque bacteria associated with oral malodor were tested, Porphyromonas gingivalis and Fusobacterium nucleatum. The MIC (Minimum Inhibitory Concentrations) study protocol is as follows. Chlorhexidine was used as a positive control and sterile water was used as a negative control. Cardamom oil was suspended in 10% methanol with 3.8% Tween 80. […] 96 well microtiter plates were used for this study. Each well contained 5×10^5 colony forming units/ml of bacteria, serially diluted agents and bacterial growth medium. All bacterial cultures were incubated at 37° C. and stationary. Bacterial growth was estimated spectrophotometrically at 660 nm, after 48 hours. The MIC for each test bacteria was defined as the minimum concentration of test compound limiting turbidity to […].

Porphyromonas gingivalis [2] = assay: as above; conditions: P. gingivalis, 48 hours at 37° C., turbidity at 660 nm
Procedure: as §1

Fusobacterium nucleatum [3] = assay: MBC (minimum bactericidal concentration) determination, plating on blood agar; conditions: F. nucleatum, lowest concentration killing at least 99.9% of initial inoculum, plates 48 hours at 37° C.
Procedure: (§2) The MBC (Minimum bactericidal concentrations) were determined using the 96 well microtiter plate serial dilutions as described above for MIC studies. Serial dilution of cultures in wells showing no visible growth were performed and 10 microliters of culture were plated in triplicate on blood agar plates. Viable colonies were scored after incubation of the plates for 48 hours at 37° C. For each test bacterium, the number of CFU/ml were determined in the initial inoculum. The MBC was defined as the lowest concentration of a test compound that killed at least 99.9% of the cells present in the initial inoculum.

Porphyromonas gingivalis [4] = assay: as above; conditions: P. gingivalis, lowest concentration killing at least 99.9% of initial inoculum, plates 48 hours at 37° C.
Procedure: as §2

[H]/N=C(\N/C(=N/[H])NCCCCCCNC(=N)NC(=N)Nc1ccc(Cl)cc1)Nc1ccc(Cl)cc1 [Cholorhexidine, Chlorhexidine]
1.25 µg/mL: MIC (Fusobacterium nucleatum [1]) | MIC (Porphyromonas gingivalis [2]) | MBC (Fusobacterium nucleatum [3]) | MBC (Porphyromonas gingivalis [4])
